Test results as given in patent US20260048049A1, “METHODS FOR TREATING CANCER USING INHALED ANGIOGENESIS INHIBITOR” (Pulmatrix Operating Company, Inc., priority 2022, published 2026).
Like-named read-outs stand apart in the source and are kept apart here.

Assays:
[1] = UniDose POD in vitro dissolution of the impactor stage mass (ISM); type: physicochemical; conditions: 500 ml PBS pH 7.4 + 2.0% SDS, 37° C.
Description: The following in vitro dissolution model was used to understand the dissolution properties of itraconazole containing dry powder aerosols. The aerosol particles were collected at well-defined aerosol particle size distribution (APSD) cut-offs using the Next Generation Impactor (NGI) (Copley Scientific, UK), and then the dissolution behavior simulated using model lung fluid.
A UniDose™ (Nanopharm, Newport, United Kingdom) aerosol dose collection system combined with a modified next generation impactor (NGI) was used to uniformly deposit the impactor stage mass (ISM), which is defined as the dose collected on and below stage 2 of a next generation impactor, onto a suitable filter for subsequent dissolution studies in a USP V—Paddle over disk (POD) apparatus.
The aerosol dose was collected in the UniDose system. […] The UniDose collection system was used to uniformly deposit the whole impactor stage mass (i.e., below stage 2 of an NGI) onto a glass microfiber filter membrane, which can be seen as where the circles (representing particles or droplets) deposit. The filter was placed into a disk cassette and dissolution studies were undertaken using 500 ml PBS pH 7.4+2.0% SDS in a USP Apparatus II POD (Paddle Over Disk, USP V) at 37° C. For all studies, sink conditions were maintained within the vessel. […]

[2] = system: Calu-3 cell line epithelial cell monolayers; test: cNGI integrated dissolution and permeability study; type: in vitro ADME; conditions: Calu-3 ALI monolayer, stage 4 of cNGI
Description: This was done using the following equation: […]

[3] = cited from earlier work

half-life [1]: 1.7 h
SMILES: CCC(C)n1ncn(-c2ccc(N3CCN(c4ccc(OCC5COC(Cn6cncn6)(c6ccc(Cl)cc6Cl)O5)cc4)CC3)cc2)c1=O (stereo not shown) [Pure ITZ, itraconazole]
dissolution and permeability kinetics [2]: slower dissolution and permeability kinetics than the other formulations | plasma protein binding ([3]; capsules): 99.6% | plasma protein binding ([3]; oral solution): 99.8%
